Literature values as cited in patent publication US20040097404A1, “Supplement to be enternally administered for parenteral nutrition or partial enteral/oral nurtrition of the critically ill, the chronically ill and people with malnutrition” (priority 2000, published 2004).

Tests used:
[1] = oral, daily doses of 50 to 400 mg/kg of body weight over 3 weeks

Row | Structure (SMILES) | butyrate concentration in the plasma [1] [mmol] | toxic side effects [1] | carcinogenic properties at autopsy (parenteral form for 21 years, patient) | toxicity (trivalent chromium)
1 | CCCC(=O)OCC(COC(=O)CCC)OC(=O)CCC [glycerol tributyrate] | ~0.5 | without detectable toxic side effects |  | 
2 | [Cr+3] [trivalent chromium] |  |  | no evidence of carcinogenic properties | nontoxic
